From US5492906A, “Derivatives of thieno-triazolo-diazepine and therapeutic compositions containing them” (Societe de Conseils de Recherches et d'Applications …, priority 1989, dated 1996) come the findings set out here.

The subject of assay [1] is platelet agregation induced by PAF. The assay is described as follows: Inhibition of platelet agregation induced by PAF. It counts as cell-based, New Zealand rabbits. Conditions: Oryctolagus cuniculus, New Zealand rabbit platelets, agregometer at 57° C., Table I. The protocol:
1) Inhibition of platelet agregation induced by PAF
This experimentation was conducted according to the method of R. KINLOUGH. RATHBONE, J. P. CAZENAVE, M. PACKHAM and F. MUSTARD, Lab. Invest. 48, 98, 1980. In this test, New Zealand rabbits were used (male New Zealand rabbits of an average weight of 5 kg).
The determinations are made on a chrono-log Coultronics agregometer, at […] coupled with a graphic recorder; the results of these determinations (in molecular concentration) are reported on the table I on the central column.

A further assay has as its target benzodiazepine receptors. The assay can be described thus: Inhibition of the binding to benzodiazepine receptors (rat brains). Particulars: rat brains incubated 1 h 30 at 4° C.; 3H-RO-15-4788 and 3H-RO-5-4864 as tracers; Table I; read-out: BDZ receptors (inhibition of the binding to benzodiazepine receptors). From the text:
2) Inhibition of the binding to benzodiazepine receptors
The interest of the previous experimentation depends on the results obtained in this experimentation: as a compound of the invention has a benzodiazepine like structure, it is important to check whether the specific benzodiazepine activity would not appear at the dose where platelet agregation was inhibited.
Therefore, this experimentation has been conducted according to the method of MOHLER H. and RICHARD J. G. Agonist and antagonist benzodiazepine receptor intereaction in vitro, Nature, vol. 294, 763°-765, 1981.
This experimentation was conducted on rat brains incubated 1 h 30 at 4° C. using ^3 H-RO-15-4788 and ^3 H-RO-5-4864 (NEN) as tracers and […] and RO-5-4864 as reference antagonists.
The results in molecular concentration are reported in the table I, on the right hand column.

Take `Cc1nnc2n1-c1sc3c(c1C(c1ccccc1Cl)=NC2)CCN(C(=O)NC(C)C)C3` [Example 2, 6-(2-chlorophenyl)-9-isopropylcarbamoyl-7,8,9,10-tetra-hydro-1-methyl4H-pyrido[4',3':4,5]thieno[3,2-f]1,2,4-triazolo [4,3-a] 1,4-diazepine]: the IC50 in assay [1] was 23.5 nM; at benzodiazepine receptors it was 66000 nM.

As for `Cc1nnc2n1-c1sc3c(c1C(c1ccccc1Cl)=NC2)CCN(C(=S)NS(=O)(=O)c1ccnc2ccccc12)C3` [Example 35, 6-(2-chlorophenyl)-9-(4-quinolylsulfonyl)thiocarbamoyl-7,8,9,10-tetrahydro-1-methyl-4H-pyrido[4',3':4,5]thieno [3,2-f]1,2,4-triazolo[4,3-a]1,4-diazepine], the IC50 in assay [1] was found to be 34 nM; at benzodiazepine receptors, 2200 nM.

As to `Cc1nnc2n1-c1sc3c(c1C(c1ccccc1Cl)=NC2)CCN(C(=S)Nc1ccc(S(C)(=O)=O)cc1)C3` [Example 21, 6-(2-chlorophenyl)-9-(4-methylsulfonyl)phenylthiocarbamoyl-7,8,9,10-tetrahydro-1-methyl 4H-pyrido[4',3':4,5]thieno[3,2-f]1,2,4-triazolo[4,3-a]1,4-diazepine], the IC50 in assay [1] was found to be 24 nM; at benzodiazepine receptors it was 1100 nM.

`Cc1nnc2n1-c1sc3c(c1C(c1ccccc1Cl)=NC2)CCN(C(=S)Nc1ccc(C(F)(F)F)cc1)C3` [Example 15, 6-(2-chlorophenyl)-9-(4-trifluoromethyl)phenylthiocarbamoyl-7,8,9,10-tetrahydro-1-methyl 4H-pyrido[4',3':4,5]thieno[3,2-f]1,2,4-triazolo[4,3-a]1,4-diazepine]: the figures for the IC50 (in assay [1]; on benzodiazepine receptors) were 220 nM and 1250 nM, respectively.

With `Cc1nnc2n1-c1sc3c(c1C(c1ccccc1Cl)=NC2)CCN(C(=S)Nc1cccc(C(F)(F)F)c1)C3` [Example 13, 6-(2-chlorophenyl)-9-(3-trifluoromethyl)phenylthiocarbamoyl-7,8,9,10-tetrahydro-1-methyl 4H-pyrido[4',3':4,5]thieno[3,2-f]1,2,4-triazolo[4,3-a]1,4-diazepine], the figures for the IC50 (in assay [1]; at benzodiazepine receptors) were 171 nM and 6250 nM, respectively.

For `Cc1nnc2n1-c1sc3c(c1C(c1ccccc1Cl)=NC2)CCN(C(=S)NC(C)(C)C)C3` [Example 4, 6-(2-chlorophenyl)-9-tertbutylthiocarbamoyl-7,8,9,10-tetrahydro-1-methyl4H-pyrido[4',3':4,5]theno [3,2-f]1,2,4-triazolo[4,3-a]1,4-diazepine], the IC50 in assay [1] was found to be 8.82 nM; on benzodiazepine receptors it was 135 nM.

With `Cc1nnc2n1-c1sc3c(c1C(c1ccccc1Cl)=NC2)CCN(C(=O)NS(=O)(=O)c1cccs1)C3` [Example 32, 6-(2-chlorophenyl)-9-(2-thienylsulfonyl)carbamoyl-7,8,9,10-tetrahydro-1-methyl-4H-pyrido[4',5':4,5]thieno[3,2-f]1,2,4-triazolo[4,3-a]1,4-diazepine], the IC50 in assay [1] stood at 66.6 nM; at benzodiazepine receptors, 4330 nM.

Regarding `Cc1nnc2n1-c1sc3c(c1C(c1ccccc1Cl)=NC2)CCN(C(=O)NS(=O)(=O)N1CCOCC1)C3` [Example 36, 6-(2-chlorophenyl)-9-(4-morpholinylsulfonyl)carbamoyl-7,8,9,10-tetrahydro-1-methyl-4H-pyrido[4',3':4,5]thieno[3,2-f]1,2,4-triazolo[4,3-a]1,4-diazepine], the values for the IC50 (in assay [1]; at benzodiazepine receptors) were 6.1 nM and 7250 nM, respectively.

On to `Cc1nnc2n1-c1sc3c(c1C(c1ccccc1Cl)=NC2)CCN(C(=S)NS(=O)(=O)c1ccco1)C3` [Example 31, 6-(2-chlorophenyl)-9-(2-furylsulfonyl)thiocarbamoyl-7,8,9,10-tetrahydro-1-methyl-4H-pyrido[4',3':4,5]thieno[3,2-f]1,2,4-triazolo[4,3-a]1,4-diazepine], for which the IC50 was 8.15 nM in assay [1] and 615 nM on benzodiazepine receptors.
